Assay [1] concerns the target T1, CTP synthase (CTPS) (Drosophila melanogaster, UniProt Q9VUL1).
T1 construct: full-length, C-terminal 6xHis-tag
T1 sequence (Q9VUL1 1-627): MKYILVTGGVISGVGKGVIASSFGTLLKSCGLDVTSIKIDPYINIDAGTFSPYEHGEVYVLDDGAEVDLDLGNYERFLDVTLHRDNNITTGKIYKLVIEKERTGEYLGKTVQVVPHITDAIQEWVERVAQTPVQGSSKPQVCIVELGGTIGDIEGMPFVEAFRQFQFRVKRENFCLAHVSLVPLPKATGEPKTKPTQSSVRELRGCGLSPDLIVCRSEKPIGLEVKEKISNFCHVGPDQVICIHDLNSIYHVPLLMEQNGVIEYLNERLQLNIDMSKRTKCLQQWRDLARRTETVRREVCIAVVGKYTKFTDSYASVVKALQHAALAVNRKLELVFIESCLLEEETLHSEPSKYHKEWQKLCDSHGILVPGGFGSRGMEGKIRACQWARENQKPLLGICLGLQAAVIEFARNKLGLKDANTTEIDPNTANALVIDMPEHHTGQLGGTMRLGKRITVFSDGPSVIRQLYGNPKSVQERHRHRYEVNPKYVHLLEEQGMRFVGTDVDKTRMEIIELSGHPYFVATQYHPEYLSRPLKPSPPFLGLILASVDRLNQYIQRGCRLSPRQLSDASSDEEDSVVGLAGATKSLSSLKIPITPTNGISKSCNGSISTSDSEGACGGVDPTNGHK
In words: cryo-EM structure ([…] Å), reaction intermediate. The format is binding.

In assay [2] the target is T1, CTP synthase (CTPS). Description: enzyme kinetics at […] nm, Hill fit (KA […]). It is filed as biochemical.
The target in assay [3] is T1, CTP synthase (CTPS). In words: cryo-EM structure ([…] Å). It is filed as binding.
Assay [4] concerns the target T1, CTP synthase (CTPS). In words: activation kinetics (KA = dissociation constant of the E·GTP complex). It is filed as biochemical.
Assay [5] deals with T1, CTP synthase (CTPS). In words: enzyme kinetics at […] nm, Hill fit (KA […]). It is filed as biochemical. This is another data set of the same source.
Assay [6] deals with T1, CTP synthase (CTPS). In words: enzyme kinetics at […] nm, Hill fit (KA […]). It is filed as biochemical. This is another data set of the same source.
Assay [7] addresses T1, CTP synthase (CTPS). In words: enzyme activity abolished at […]; filament formation by negative-stain EM. It is filed as biochemical.
In assay [8] the target is T1, CTP synthase (CTPS). Description: cryo-EM structure; activation kinetics (KA = dissociation constant of the enzyme-regulator complex). It is filed as biochemical. The source says:
cryo-EM structure; activation kinetics (KA = dissociation constant of the enzyme-regulator complex) on CTP synthase (CTPS) | we observed a clear electron density of dGTP

Assay [9] deals with T1, CTP synthase (CTPS). In words: enzyme kinetics at […] nm, Hill fit (KA […]). It is filed as biochemical. The source holds these as a separate data set.

With `O=c1nc(OP(=O)(O)O)ccn1[C@H]1C[C@H](O)[C@@H](COP(=O)(O)OP(=O)(O)OP(=O)(O)O)O1` [4Pi-dUTP], the “cryo-EM structure (2.7 Å), reaction intermediate” value in assay [1] was “our electron density map shows that dUTP has been catalyzed by CTPS to 4Pi-dUTP and stabilized through various interactions”.

By Kd is commonly meant the concentration at which binding is half-saturated. Read a high Kd as weaker binding. `Nc1ncnc2c1ncn2[C@@H]1O[C@H](COP(=O)(O)OP(=O)(O)OP(=O)(O)O)[C@@H](O)[C@H]1O` [ATP]: in [2], the Kd came to 60 µM.

Consider `[N-]=[N+]=CC(=O)CC[C@H](N)C(=O)O` [DON, 6-diazo-L-noreleucine], for which, in assay [3], the “cryo-EM structure (2.7 Å)” value is on record as “The electron density of the covalent inhibitor DON was observed in the binding pocket of the GAT domain”.

The compound `Nc1nc2c(ncn2[C@@H]2O[C@H](COP(=O)(O)OP(=O)(O)OP(=O)(O)O)[C@@H](O)[C@H]2O)c(=O)[nH]1` [GTP] yielded a Kd in assay [4] of 51.2 µM.

`O=c1ccn([C@@H]2O[C@H](COP(=O)(O)OP(=O)(O)OP(=O)(O)O)[C@@H](O)[C@H]2O)c(=O)[nH]1` [UTP] displayed a Kd in [5] of 50 ± 40 µM.

On to `Nc1ncnc2c1ncn2[C@H]1C[C@H](O)[C@@H](COP(=O)(O)OP(=O)(O)O)O1` [dADP], for which, in [3], the “cryo-EM structure (2.7 Å)” value was “dATP has been converted to dADP by CTPS”.

`Nc1ncnc2c1ncn2[C@H]1C[C@H](O)[C@@H](COP(=O)(O)OP(=O)(O)OP(=O)(O)O)O1` [dATP] registered a Kd in [6] of 160 ± 80 µM.

As to `Nc1ccn([C@H]2C[C@H](O)[C@@H](COP(=O)(O)OP(=O)(O)OP(=O)(O)O)O2)c(=O)n1` [dCTP], the “enzyme activity abolished at 1 mM; filament formation by negative-stain EM” value in [7] was “This indicates that both CTP and dCTP have strong inhibition effects on CTPS activity”.

In assay [8], `Nc1nc2c(ncn2[C@H]2C[C@H](O)[C@@H](COP(=O)(O)OP(=O)(O)OP(=O)(O)O)O2)c(=O)[nH]1` [dGTP] registered a Kd of 523 ± 312 µM.

Turning to `O=c1ccn([C@H]2C[C@H](O)[C@@H](COP(=O)(O)OP(=O)(O)OP(=O)(O)O)O2)c(=O)[nH]1` [dUTP], binding in assay [9] was characterised by a dissociation constant (Kd) of 280 ± 70 µM.

The values are drawn from publication PMC7619001, “Structural Basis of Bifunctional CTP/dCTP Synthase” (Journal of molecular biology, 2024).
